From PubChem BioAssay AID256 (DTP/NCI, 2004) come the findings set out here.

The test deals with CD2F1 mice, L1210 leukemia ip, survival T/C. Kind of test: NCI In Vivo Anticancer Drug Screen. Data for tumor model L1210 Leukemia (intraperitoneal) in CD2F1 (CDF1) mice. The note with it: higher = longer survival. In short, it runs like this: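 Read-out first: treated-group measurement over vehicle-control measurement, expressed as a ratio. Animals bore a transplanted tumor line and were dosed with compound or vehicle.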

[1] abbreviates: endpoint: mean survival time, dose: 12.5 mg/kg/injection, schedule: Q01DX009 (ip), vehicle: Klucel (hydroxypropylcellulose) (HPC).
The mark [2] stands for this setting: endpoint: mean survival time, dose: 25.0 mg/kg/injection, schedule: Q01DX009 (ip), vehicle: Klucel (hydroxypropylcellulose) (HPC).
The mark [3] stands for this setting: endpoint: mean survival time, dose: 50.0 mg/kg/injection, schedule: Q01DX009 (ip), vehicle: Klucel (hydroxypropylcellulose) (HPC).
The mark [4] stands for this setting: endpoint: mean survival time, dose: 100.0 mg/kg/injection, schedule: Q01DX009 (ip), vehicle: Klucel (hydroxypropylcellulose) (HPC).
[5] abbreviates: endpoint: mean survival time, dose: 200.0 mg/kg/injection, schedule: Q01DX009 (ip), vehicle: Klucel (hydroxypropylcellulose) (HPC).
[6] abbreviates: endpoint: mean survival time, dose: 75.0 mg/kg/injection, schedule: Q01DX001 (ip), vehicle: saline.
[7] abbreviates: endpoint: mean survival time, dose: 150.0 mg/kg/injection, schedule: Q01DX001 (ip), vehicle: saline.
Setting [8] is: endpoint: mean survival time, dose: 50.0 mg/kg/injection, schedule: Q01DX009 (ip), vehicle: saline with Tween-80.
Setting [9] is: endpoint: mean survival time, dose: 100.0 mg/kg/injection, schedule: Q01DX009 (ip), vehicle: saline with Tween-80.
Setting [10] is: endpoint: mean survival time, dose: 200.0 mg/kg/injection, schedule: Q01DX009 (ip), vehicle: saline with Tween-80.
[11] abbreviates: endpoint: mean survival time, dose: 12.5 mg/kg/injection, schedule: Q01DX009 (ip), vehicle: saline with Tween-80.
[12] abbreviates: endpoint: mean survival time, dose: 25.0 mg/kg/injection, schedule: Q01DX009 (ip), vehicle: saline with Tween-80.
Setting [13] is: endpoint: mean survival time, dose: 400.0 mg/kg/injection, schedule: Q01DX009 (ip), vehicle: saline with Tween-80.
Where [14] appears, read: endpoint: mean survival time, dose: 100.0 mg/kg/injection, schedule: Q04DX002 (ip), vehicle: saline with Tween-80.
[15] abbreviates: endpoint: mean survival time, dose: 200.0 mg/kg/injection, schedule: Q04DX002 (ip), vehicle: saline with Tween-80.
The mark [16] stands for this setting: endpoint: mean survival time, dose: 400.0 mg/kg/injection, schedule: Q04DX002 (ip), vehicle: saline with Tween-80.

“And” between values parts separate entries of the source, which are not always exact repeats. Equal entries are not always repeated. Inconclusive results and toxic doses are left out.

With `N#CCCN(C(=S)Nc1cccc(C(F)(F)F)c1)C1CCCCC1`, the T/C under setting [1] was 92 % of control; the T/C under setting [2] is 97 % of control; the T/C under setting [3] was 98 % of control; the T/C under setting [4] was 98 % of control; the T/C under setting [5] is 98 % of control; the T/C (endpoint: mean survival time, dose: 400.0 mg/kg/injection, schedule: Q01DX009 (ip), vehicle: Klucel (hydroxypropylcellulose) (HPC)) was 101 % of control. Further, the T/C (endpoint: median survival time, dose: 100.0 mg/kg/injection, schedule: Q01DX009 (ip), vehicle: Klucel (hydroxypropylcellulose) (HPC)) is 101 % of control; the T/C (endpoint: median survival time, dose: 200.0 mg/kg/injection, schedule: Q01DX009 (ip), vehicle: Klucel (hydroxypropylcellulose) (HPC)) was 103 % of control; the T/C (endpoint: median survival time, dose: 400.0 mg/kg/injection, schedule: Q01DX009 (ip), vehicle: Klucel (hydroxypropylcellulose) (HPC)) was 104 % of control.

Turning to `CCC(CNCCCCCC(=O)O)(C(=O)O)C(=O)O`, the T/C (endpoint: mean survival time, dose: 12.5 mg/kg/injection, schedule: Q04DX002 (ip), vehicle: saline with Tween-80) was 90 % of control; the T/C (endpoint: mean survival time, dose: 25.0 mg/kg/injection, schedule: Q04DX002 (ip), vehicle: saline with Tween-80) was 98 % of control; the T/C (endpoint: mean survival time, dose: 50.0 mg/kg/injection, schedule: Q04DX002 (ip), vehicle: saline with Tween-80) was 94 % of control.

For the compound `COc1ccc(-c2ncn(-c3ccc(S(=O)(=O)O)cc3)c2-c2ccc(OC)cc2)cc1`, the T/C is 95 % of control (endpoint: mean survival time, dose: 100.0 mg/kg/injection, schedule: Q04DX003 (ip), vehicle: Klucel (hydroxypropylcellulose) (HPC)); 95 % of control (endpoint: mean survival time, dose: 200.0 mg/kg/injection, schedule: Q04DX003 (ip), vehicle: Klucel (hydroxypropylcellulose) (HPC)); 102 % of control (endpoint: mean survival time, dose: 400.0 mg/kg/injection, schedule: Q04DX003 (ip), vehicle: Klucel (hydroxypropylcellulose) (HPC)).

With `COC(=O)N(C)c1nc(-c2ccccc2)nc2nonc12`, the T/C by setting is: (endpoint: mean survival time, dose: 12.5 mg/kg/injection, schedule: Q01DX005 (ip), vehicle: saline with Tween-80) 100 % of control; (endpoint: mean survival time, dose: 25.0 mg/kg/injection, schedule: Q01DX005 (ip), vehicle: saline with Tween-80) 96 % of control; (endpoint: mean survival time, dose: 50.0 mg/kg/injection, schedule: Q01DX005 (ip), vehicle: saline with Tween-80) 94 % of control; (endpoint: mean survival time, dose: 100.0 mg/kg/injection, schedule: Q01DX005 (ip), vehicle: saline with Tween-80) 90 % of control.

For the compound `CCCCCCCCCCCCCCCC(=O)N1CC[N+](C)(CC2=CC3(Cl)C(Cl)=C(Cl)C2(Cl)C3(Cl)Cl)CC1` (configuration not stated), the T/C by setting is: under setting [6], 93 % of control; under setting [7], 100 % of control.

Turning to `CC(CCc1ccc(S(=O)(=O)Cl)cc1)c1ccc(S(=O)(=O)Cl)cc1` (configuration not stated), the T/C under setting [8] is 106 % of control, the T/C under setting [9] was 95 % of control and the T/C under setting [10] was 91 % of control.

For the compound `C[N+]1=C(c2ccccc2)CCC(C(C)(C)C)C1` (configuration not stated), the T/C by setting is: (endpoint: mean survival time, dose: 37.5 mg/kg/injection, schedule: Q04DX003 (ip), vehicle: saline) 102 % of control; under setting [6], 95 % of control; (endpoint: mean survival time, dose: 75.0 mg/kg/injection, schedule: Q04DX003 (ip), vehicle: saline) 96 % of control; under setting [7], 92 % of control; (endpoint: mean survival time, dose: 150.0 mg/kg/injection, schedule: Q04DX003 (ip), vehicle: saline) 100 % of control.

On to `CCOC(=O)c1ccc(NC(=O)Nc2nccs2)cc1`, for which the T/C reads like this: (endpoint: mean survival time, dose: 6.25 mg/kg/injection, schedule: Q01DX009 (ip), vehicle: Klucel (hydroxypropylcellulose) (HPC)) 101 % of control; (endpoint: mean survival time, dose: 6.25 mg/kg/injection, schedule: Q01DX009 (oral), vehicle: Klucel (hydroxypropylcellulose) (HPC)) 101 % of control; under setting [1], 100 % of control; under setting [11], 108 % of control; (endpoint: mean survival time, dose: 12.5 mg/kg/injection, schedule: Q01DX009 (oral), vehicle: Klucel (hydroxypropylcellulose) (HPC)) 100 % of control; (endpoint: mean survival time, dose: 12.5 mg/kg/injection, schedule: Q01DX009 (oral), vehicle: saline with Tween-80) 103 % of control. Moreover, the T/C reads like this: under setting [2], 97 % of control; under setting [12], 110 % of control; (endpoint: mean survival time, dose: 25.0 mg/kg/injection, schedule: Q01DX009 (oral), vehicle: Klucel (hydroxypropylcellulose) (HPC)) 100 % of control; (endpoint: mean survival time, dose: 25.0 mg/kg/injection, schedule: Q01DX009 (oral), vehicle: saline with Tween-80) 97 % of control; under setting [3], 97 % of control; under setting [8], 114 % of control and 122 % of control. Further, the T/C by setting is: (endpoint: mean survival time, dose: 50.0 mg/kg/injection, schedule: Q01DX009 (oral), vehicle: Klucel (hydroxypropylcellulose) (HPC)) 105 % of control; (endpoint: mean survival time, dose: 50.0 mg/kg/injection, schedule: Q01DX009 (oral), vehicle: saline with Tween-80) 100 % of control; under setting [4], 105 % of control; under setting [9], 121 % of control and 110 % of control; (endpoint: mean survival time, dose: 100.0 mg/kg/injection, schedule: Q01DX009 (oral), vehicle: Klucel (hydroxypropylcellulose) (HPC)) 95 % of control; (endpoint: mean survival time, dose: 100.0 mg/kg/injection, schedule: Q01DX009 (oral), vehicle: saline with Tween-80) 101 % of control. Besides, the T/C is 110 % of control under setting [5]; 106 % of control under setting [10]; 100 % of control (endpoint: mean survival time, dose: 200.0 mg/kg/injection, schedule: Q01DX009 (oral), vehicle: Klucel (hydroxypropylcellulose) (HPC)); 95 % of control (endpoint: mean survival time, dose: 200.0 mg/kg/injection, schedule: Q01DX009 (oral), vehicle: saline with Tween-80); 121 % of control under setting [13]; 97 % of control (endpoint: mean survival time, dose: 400.0 mg/kg/injection, schedule: Q01DX009 (oral), vehicle: saline with Tween-80).

Regarding `Nc1nc(N)c(-c2ccc(Cl)c(Cl)c2)c(CBr)n1`, the T/C under setting [11] was 102 % of control and the T/C under setting [12] is 105 % of control.

As for `O=C(Nc1ccccc1)C(Cl)Cl`, the T/C runs as follows: (endpoint: mean survival time, dose: 100.0 mg/kg/injection, schedule: Q04DX003 (ip), vehicle: saline with Tween-80) 103 % of control; (endpoint: mean survival time, dose: 200.0 mg/kg/injection, schedule: Q04DX003 (ip), vehicle: saline with Tween-80) 103 % of control; (endpoint: mean survival time, dose: 400.0 mg/kg/injection, schedule: Q04DX003 (ip), vehicle: saline with Tween-80) 97 % of control.

With `ClC1C(c2ccccc2)=C(c2ccccc2)c2ccccc21` (configuration not stated), the T/C was 87 % of control (endpoint: mean survival time, dose: 100.0 mg/kg/injection, schedule: Q01DX001 (ip), vehicle: saline with Tween-80); 91 % of control (endpoint: mean survival time, dose: 200.0 mg/kg/injection, schedule: Q01DX001 (ip), vehicle: saline with Tween-80); 101 % of control under setting [10]; 98 % of control under setting [13].

With `CC(C(N)=O)C1CCC2(C)CCC(=O)C(C)C2C1O` (configuration not stated), the T/C by setting is: under setting [14], 104 % of control; under setting [15], 120 % of control; under setting [16], 120 % of control.

For `CC(=O)OCC1C(OC(C)=O)CC2CCC1N2C#N` (configuration not stated), the T/C (endpoint: mean survival time, dose: 50.0 mg/kg/injection, schedule: Q04DX002 (ip), vehicle: Klucel (hydroxypropylcellulose) (HPC)) is 107 % of control; the T/C (endpoint: mean survival time, dose: 100.0 mg/kg/injection, schedule: Q04DX002 (ip), vehicle: Klucel (hydroxypropylcellulose) (HPC)) is 96 % of control; the T/C (endpoint: mean survival time, dose: 200.0 mg/kg/injection, schedule: Q04DX002 (ip), vehicle: Klucel (hydroxypropylcellulose) (HPC)) was 88 % of control and 89 % of control.

As for `CCOc1ccc(CCN2CC34C=CC(O3)C(C(=O)O)C4C2=O)cc1OC` (configuration not stated), the T/C runs as follows: under setting [14], 95 % of control; under setting [15], 95 % of control; under setting [16], 91 % of control.

With `O=C(O)c1ccc([N+](=O)[O-])cc1C(=O)O.[NH-]C1CCCCC1[NH-].[Pt+2]`, the T/C by setting is: (endpoint: median survival time, dose: 3.12 mg/kg/injection, schedule: Q04DX003 (ip), vehicle: saline) 100 % of control and 110 % of control; (endpoint: median survival time, dose: 6.25 mg/kg/injection, schedule: Q04DX003 (ip), vehicle: saline) 121 % of control and 110 % of control; (endpoint: median survival time, dose: 12.5 mg/kg/injection, schedule: Q04DX003 (ip), vehicle: saline) 116 % of control; (endpoint: median survival time, dose: 50.0 mg/kg/injection, schedule: Q04DX003 (ip), vehicle: saline) 176 % of control; (endpoint: median survival time, dose: 100.0 mg/kg/injection, schedule: Q04DX003 (ip), vehicle: saline) 183 % of control and 282 % of control; (endpoint: median survival time, dose: 200.0 mg/kg/injection, schedule: Q04DX003 (ip), vehicle: saline) 97 % of control.
